Row | Structure (SMILES) | melting point [°C]
1 | CCc1cn(-c2ncccn2)c2c1C(=O)CC(C)(C)C2 | 111 to 114
2 | COc1cccc2oc(C(=O)C34CC5CC(CC(C5)C3)C4)cc12 | 96 to 98
3 | Clc1cnc2c(C(Cl)Cl)c(Cl)ccc2c1 | 154
4 | CC1=C(CCOC(=O)C(C)(C)C)C2=C(O)N(I)CN(CCOC(=O)C(C)(C)C)C2=N1 | 155
5 | CCCS(=O)(=O)NCC(O)(Cn1cncn1)c1ccc(Cl)cc1Cl (stereo not drawn) | 128 to 129
6 | O=P1(NCCCl)OCCCN1CCBr (stereo not drawn) | 50 to 51
7 | O=[N+]([O-])c1ccc(Oc2c(Cl)cc(C(F)(F)F)cc2Cl)cc1CO | 143
8 | CC(=O)OC1(C(C)=O)C(C)CC2C3CC(C)C4=CC(=O)C=CC4(C)C3(F)C(O)CC21C (stereo not drawn) | 291 to 293
9 | Cc1occc1Sc1cncc2sc(C(N)=O)cc12 | 236 to 239
10 | COc1ccc(C2CCN(C(N)=O)CC2)cc1CC1CCCC1 | 168 to 169
11 | CC(NC1=NS(=O)(=O)c2cc(Br)ccc2N1)C(C)(C)C (stereo not drawn) | > 220
12 | COc1cc(-n2c(=O)cc(C(F)(F)F)n(C)c2=O)c(F)cc1Cl | 128 to 130
13 | C[C@H](NC(=O)CCC(=O)NO)C(=O)N1CCC[C@H]1C(=O)O | 195 to 196
14 | c1cc2c(cn1)ncn2CCCCc1nnnn1C1CCCCC1 | 93 to 95
15 | CCc1nn2ccc3oc(C)cc3c2c1CCNC(C)=O | 128 to 129
16 | N#CSc1nc(Cl)ncc1I | 185 to 186
17 | FC(F)C(F)(F)Oc1cccc(Nc2nccc(-c3ccsc3)n2)c1 | 110 to 111
18 | COc1cc(OC)cc(-c2nnc(-c3cc(OC)cc(OC)c3)o2)c1 | 167 to 170
19 | Cc1csc(N)c1S(N)(=O)=O | 142 to 144
20 | CCC(C)(CC)C1=NN=C(NC(=O)c2c(OC)cccc2OC)SC1 | 134 to 140
21 | O=C(Nc1nc(C(O)C(=O)O)cs1)OCC(Cl)(Cl)Cl (stereo not drawn) | 135 to 136
22 | COc1cc(OC)c(C=O)cn1 | 97 to 98
23 | CCC1(C)CC2(NC(=O)N(C)C2=O)C(C)C(C)(CC)N1 (stereo not drawn) | 137 to 142

Row | Structure (SMILES) | melting point [°C]
24 | Cc1ccc(C)c(C(=O)CC#N)c1 | 75 to 76
25 | CCOC(=O)Nc1ccc(OC)c(OC)c1 | 75 to 78
26 | CCS(=O)(=O)Nc1cc(Br)cc(Cc2c[nH]cn2)c1C | 202 to 204
27 | OC1(c2ccc(-c3cncnc3)cc2)CN2CCC1CC2 (stereo not drawn) | 184 to 185
28 | Nc1c(-c2cc(Cl)ccc2O)nnn1-c1ccc(Cl)cc1Cl | 131 to 136
29 | CN(C)C1CCc2c(c3ccccc3n2CC(=O)O)C1 (stereo not drawn) | 316 to 319
30 | O=C1CCC(O)(c2ccc(F)c(F)c2)CC1 | 84 to 85
31 | O=[N+]([O-])c1cc2c(Cl)ncnc2s1 | 112
32 | CC(=O)OC1CSC(Oc2ccc(C#N)nc2)C(OC(C)=O)C1OC(C)=O (stereo not drawn) | 147
33 | COc1ccc(C(=O)O)c2c1OCCCO2 | 186
34 | Clc1ccc2c(c1)C(c1ccccc1Cl)=NCc1nccn1-2 | 179 to 180
35 | O=[N+]([O-])c1ccc(Oc2ccc3c(c2)OCCC3Cl)cc1 (stereo not drawn) | 67 to 68
36 | COc1cc(C2C3=C(COC3=S)N(Cc3ccccc3)c3cc4c(cc32)OCO4)cc(OC)c1OC (stereo not drawn) | 130
37 | Cc1ccccc1C(=O)C=CC(=O)O | 82 to 83
38 | CCN(CC1CCCC1)c1nc2c(cc1CN(Cc1cc(C(F)(F)F)cc(C(F)(F)F)c1)c1nnn(C)n1)c(C)nn2C | 84 to 86
39 | O=S1(=O)NCN(CCF)c2ccc(Br)cc21 | 122 to 124
40 | COc1cc2c(cc1OC)C(c1cccc(Cl)c1)=NNC(C)C2 (stereo not drawn) | 116 to 120
41 | COC(=O)N1CC[C@H](Nc2nc3cncnc3n2Cc2ccc(F)cc2)[C@H](C)C1 (relative stereo) | 152
42 | CCc1c(C)nc2c(C)cccn2c1=O | 90 to 92
43 | CCNC1CN(c2cc3c(cc2F)c(=O)c2c(=O)[nH]sc2n3C2CC2)C1 | 231 to 236
44 | Brc1cccc(Oc2ccccc2)n1 | 83 to 86
45 | CC(=O)c1ccc(N2CCN(CCC3CN(C)C(=O)O3)CC2)cc1 (stereo not drawn) | 142 to 145

Second part, the molecule after the results:

Row | melting point [°C] | Structure (SMILES)
46 | 193 to 194 | CN1C[C@H]2c3ccccc3[C@H](c3ccccc3)CN2C(=O)C1=O (relative stereo)
47 | 93 to 95 | Cc1c(C)c2c(c(C)c1NCc1ccc(F)cc1)C(c1ccccc1)C(C)(C)O2 (stereo not drawn)
48 | 208 to 210 | Cc1c(-c2cc(Nc3cc4n(n3)CCN(C)C4)c(=O)n(COP(=O)(OCCC#N)OCCC#N)n2)cccc1N1Cc2cc(C(C)(C)C)sc2C1=O
49 | 191 to 194 | COc1cccc(C2CNC(=O)C2c2cn3c4c(cccc24)CCC3)c1 (stereo not drawn)
50 | 126 to 138 | COc1cc(OCc2cccnc2)ccc1/C=C/c1cc(/C=C/c2cc3ccccc3[nH]2)n[nH]1
51 | 161 to 163 | O=C1CCC(N2C(=O)c3cccc(CNC(=O)c4ccc(Cl)c(Cl)c4)c3C2=O)C(=O)N1 (stereo not drawn)
52 | 142 to 143 | Cc1ccccc1P(=NC(=O)OCc1cccnc1)(c1ccccc1)c1ccccc1
53 | 110 to 114 | Cc1nc(-c2sc(-c3ccc(Cl)cc3)nc2C)sc1C(=O)N[C@H](C)[C@](O)(Cn1cncn1)c1ccc(F)cc1F
54 | 189 to 191 | CNC(=S)NS(=O)(=O)c1cc(CCNC(=O)c2cc(Cl)ccc2OC)ccc1-c1cccs1
55 | 143 to 144 | NC(=O)N(O)C1C=C(c2cccc(Oc3ccc(Cl)cc3)c2)CC1 (single isomer, unassigned; (+))
56 | 205 to 210 | COc1ccc(C(=N)NS(=O)(=O)C=Cc2ccc(Cl)c(Cl)c2)cc1OC
57 | 218 to 220 | CCOC(=O)C(=O)c1c[nH]c2ccc(CNS(C)(=O)=O)cc12
58 | 227 | CCOC(=O)c1c(N2CCN(C(=O)c3cccs3)CC2)c2cc(Cl)cnc2n(CC(=O)c2ccccc2)c1=O
59 | 188 to 191 | CC(C(=O)O)c1ccc2nc(-c3ccc(Cl)cc3)oc2c1 (stereo not drawn)
60 | 92 to 94 | CN(C)CCCNC(=O)Cn1cnc(-c2ccccc2)c1-c1ccccc1
61 | 179 | CCOc1ccc2c(c1)n(C1CCCCC1)c(=O)n2S(=O)(=O)c1ccc(C(=O)Nc2ccccc2C)cc1OC
62 | 124 to 125 | Cc1c(-c2ccccc2)oc2c(S(=O)CCCCCl)cccc2c1=O (stereo not drawn)
63 | 107 to 109 | CCN(CC)c1nc(Cc2ccc(OC)c(OC)c2)nc2sc(C#N)c(C)c12
64 | > 260 | Cn1cncc1C(O)(c1ccc(Cl)cc1)c1ccc2c(c1)C(c1cccc(Cl)c1)n1nnnc1N2 (stereo not drawn)
65 | 147 to 148 | CCOC(=O)Cc1c(C(=O)CC)sc2[nH]c(C(=O)CC)cc12
66 | 93 | CCCCCCCC(=O)N(C)Cc1ccc(OCc2ccccc2)c(-c2ccc(C=C3SC(=O)NC3=O)cc2)c1
67 | 145 | Cc1ccc(S(=O)(=O)OCC2COc3ccc4[nH]ccc4c3O2)cc1 (stereo not drawn)
68 | 190 to 192 | CSc1cc(CO)cc(S(N)(=O)=O)c1Cc1ccccc1
69 | 244 to 246 | COCC1(C)Oc2ccccc2C(n2ccccc2=O)C1O (stereo not drawn)
70 | 241 to 244 | O=C(c1ccccc1)N1CCc2[nH]c3cccc(-c4ccccc4F)c3c2CC1
71 | 207 to 209 | Cc1cccc(NC(=O)NC2CN(C(=O)C3CC3)c3ccccc3N(CC(=O)c3ccccc3C)C2=O)c1 (stereo not drawn)
72 | 258 to 260 | Cc1ccc(N2C(=O)C(N)=C(C(=O)c3ccc(C(C)C)cc3)C2c2ccc(OC(F)(F)F)cc2)nn1 (stereo not drawn)

Row | melting point [°C] | Structure (SMILES)
73 | 208 | CN1CCC(CC(O)c2cc(-c3ccccc3)nc3ccccc23)CC1 (stereo not drawn)
74 | 230 to 232 | CS(=O)(=O)c1ccc([C@@H](CC2CCCC2)C(=O)Nc2nc3ccccc3[nH]2)cc1
75 | 113 to 116 | Cc1csc(-c2sc(Br)cc2-c2ccc(F)cc2)c1
76 | 224 to 225 | Cc1cc(-c2nc3cccnn3c2-c2ccnc(NC(=O)c3ccnc(Cl)c3)c2)ccc1F
77 | 274 to 276 | O=C(O)COc1ccnc2ccccc12
78 | 88 to 90 | CCOC(=O)COc1cccc(C(=O)Nc2ccccc2Sc2ccc(-c3nnn[nH]3)cc2)c1
79 | 162 | O=C(c1ccccc1)c1ccc2sc(NCCCO)nc2c1
80 | 110 to 111 | Cc1ccc(-n2cc(C(=O)O)c(=O)c3cc(F)c(F)c(F)c32)cc1
81 | 78 to 81 | Nc1nc(Cn2c(-c3ccc(Oc4cncnc4)cc3)ccc2-c2ccccc2Cl)ccc1OCCO
82 | 135 to 136 | CCN(CC)C(=O)COC(=O)c1ccc(N)cc1
83 | 57 to 58 | CCCCCCc1cc(SC)ccc1OC(=O)c1ccccc1
84 | 145 | Cn1nnc2ccc(C(O)c3ccccc3)cc21 (stereo not drawn)
85 | 194 to 195 | Cc1ccc(-c2c3n(c(=O)c4ncccc24)CCCN(Cc2cc(C(F)(F)F)cc(C(F)(F)F)c2)C3=O)cc1
86 | 164 to 165 | Cc1ccc(C#Cc2ccc(NC(=O)OC(C)(C)C)c([N+](=O)[O-])c2)cc1
87 | 170 to 172 | CCc1ccc(N(Cc2ccc(C(=O)N(C)C)cc2)C(=O)Nc2c(C(C)C)cccc2C(C)C)cc1
88 | 253 to 255 | CC(=O)N1N=C(c2ccc([N+](=O)[O-])c(C)c2)c2cc3c(cc2CC1(C)C#N)OCO3 (stereo not drawn)
89 | 95 | CC1(C)CCSc2c(CC#Cc3ccc(O)cc3)cccc21
90 | 227 | Cc1cc(-n2ncc(=O)[nH]c2=O)cc(Cl)c1C(C)(C#N)c1ccc(Cl)cc1 (stereo not drawn)
91 | 206 to 207 | Cc1ccc(-c2csc(/C=C/C(=O)O)c2)cc1
92 | 194 to 197 | O=C1N(Cc2nnc(Cl)s2)c2ccccc2C12COc1cc3c(cc12)OCO3 (stereo not drawn)
93 | 112 to 114 | Cc1cccc(N2CCN(CCCCc3ccc(C4CCC(=O)N4)cc3)CC2)c1C (stereo not drawn)
94 | 138 to 140 | COc1ccc(Cl)cc1C(=O)NS(=O)(=O)c1ccc(C(=O)Cl)cc1
95 | 144 to 145 | COc1ccc(C2Sc3c(ccc4ccccc34)N(CCN(C)C)C(=O)C2OC(=O)c2cccnc2)cc1 (stereo not drawn)
96 | 82 to 84 | O=[N+]([O-])c1ccc(Oc2ccccc2Oc2ccc(Cl)cn2)nc1
97 | 175 to 177 | CCOC(=O)c1cccc2c1Nc1ccc(C(=O)c3ccccc3)cc1N2
98 | 161 to 163 | O=C(CCCCCNC(=O)Nc1cn2c3c(cccc13)CCC2)NO

Reference: a melting point compilation (Tetko et al.; mined from patent text by program, amines drawn as free bases though some values may be those of a salt)
